Laboratory results reported in patent US20250230193A1, “CYCLIC COMPOUND HAVING SELECTIVE KRAS INHIBITORY EFFECT ON HRAS AND NRAS” (CHUGAI SEIYAKU KABUSHIKI KAISHA, priority 2022, published 2025).
Where a SMILES comes first, the peptide text is derived from it. Bridges are numbered along the chain shown (N, C = ends). [ ]: non-standard residue; d: D form. The star is where a group is joined. hPhe(3-Cl-4-CF3) = N[C@@H](CCc1ccc(C(F)(F)F)c(Cl)c1)C(=O)O; NPrPhe(4-CF3) = CCCN[C@@H](Cc1ccc(C(F)(F)F)cc1)C(=O)O; NMeGly(cPent) = CN[C@H](C(=O)O)C1CCCC1; NMeD = CN[C@@H](CC(=O)O)C(=O)O; NMeL = CN[C@@H](CC(C)C)C(=O)O; Ac6c = NC1(C(=O)O)CCCCC1; Morpholide = C1CN(*)CCO1; NMeA = CN[C@@H](C)C(=O)O; Aze = O=C(O)[C@@H]1CCN1; Sar = CNCC(=O)O

Assays:
[1] = target: GDP-bound NRAS wild-type protein (Homo sapiens, UniProt P01111); assay: Binding to NRAS by surface plasmon resonance (SPR), Single Cycle Kinetics; conditions: for NRAS/KRAS (ratio of KD value with respect to NRAS to KD value with respect to KRAS) / NRAS/KRAS (ratio of KD value for NRAS to KD value for KRAS): GDP-bound NRAS wild-type vs GDP-bound KRAS wild-type
[2] = target: GDP-bound HRAS wild-type protein (Homo sapiens, UniProt P01112); assay: Binding to HRAS by surface plasmon resonance (SPR), Single Cycle Kinetics; conditions: for HRAS/KRAS (ratio of KD value with respect to HRAS to KD value with respect to KRAS) / HRAS/KRAS (ratio of KD value for HRAS to KD value for KRAS): GDP-bound HRAS wild-type vs GDP-bound KRAS wild-type
Sequence of GDP-bound HRAS wild-type protein (P01112 whole entry): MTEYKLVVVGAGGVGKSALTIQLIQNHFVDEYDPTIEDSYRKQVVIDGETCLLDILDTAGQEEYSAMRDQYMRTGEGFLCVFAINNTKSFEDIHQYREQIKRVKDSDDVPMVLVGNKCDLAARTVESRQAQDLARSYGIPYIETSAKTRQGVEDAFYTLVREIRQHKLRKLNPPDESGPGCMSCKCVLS

Sequence of GDP-bound NRAS wild-type protein (P01111 whole entry): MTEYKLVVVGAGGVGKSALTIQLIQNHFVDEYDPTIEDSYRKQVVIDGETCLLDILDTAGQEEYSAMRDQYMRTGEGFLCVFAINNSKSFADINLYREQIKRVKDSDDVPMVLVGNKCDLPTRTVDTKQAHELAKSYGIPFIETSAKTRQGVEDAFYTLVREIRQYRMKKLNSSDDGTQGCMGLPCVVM

CCO[C@@H]1C[C@H]2C(=O)NC3(CC(C)(C)C3)C(=O)N(C)[C@@H](C(CC)CC)C(=O)N(C)[C@H](C(=O)N(C)C)CC(=O)N(C)[C@@H](C(C)C)C(=O)N[C@@H]([C@@H](C)CC)C(=O)N(C)CC(=O)N(C)[C@H]3C/C=C\CCN(C3=O)[C@@H](Cc3ccc(C)cc3)C(=O)N(C)CC(=O)N[C@@H](CCc3cc(F)c(C(F)(F)F)c(F)c3)C(=O)N2C1 [PP2153] was tested, and the “NRAS/KRAS (ratio of KD value with respect to NRAS to KD value with respect to KRAS)” value ([1]; SPR) was “A (a compound having 10 or more and less than 20 is denoted as A)” and the “HRAS/KRAS (ratio of KD value with respect to HRAS to KD value with respect to KRAS)” value ([2]; SPR) was “A (a compound having 10 or more and less than 20 is denoted as A)”.

CCCN1C(=O)[C@@H]2CCN2C(=O)[C@H](C)N(C)C(=O)[C@H]([C@@H](C)CC)NC(=O)[C@H](CC(C)C)N(C)C(=O)C[C@@H](C(=O)N2CCOCC2)N(C)C(=O)[C@H](C2CCCC2)N(C)C(=O)C2(CCCCC2)NC(=O)[C@@H]2CCCN2C(=O)[C@H](CCc2ccc(C(F)(F)F)c(Cl)c2)NC(=O)CN(C)C(=O)[C@@H]1Cc1ccc(C(F)(F)F)cc1 [PP0226] ([NMeL]I[NMeA][Aze][NPrPhe(4-CF3)][Sar][hPhe(3-Cl-4-CF3)]P[Ac6c][NMeGly(cPent)][NMeD]-Morpholide; lactam N-11) was tested, and the “NRAS/KRAS (ratio of KD for GDP-bound NRAS wild-type to KD for KRAS)” value ([1]; KD ratio NRAS/KRAS, SPR) was “C (A compound having a KD ratio of 0.1 or more and less than 3 is denoted as C)” and the “HRAS/KRAS (ratio of KD for GDP-bound HRAS wild-type to KD for KRAS)” value ([2]; KD ratio HRAS/KRAS, SPR) was “B (a compound having 3 or more and less than 10 is denoted as B)”.

With CCOC[C@H]1C(=O)N[C@@H]([C@@H](C)CC)C(=O)N2CCC[C@H]2C(=O)N(C)[C@H]2C/C=C\CCN(C2=O)[C@@H](Cc2ccc(C)cc2)C(=O)N(C)CC(=O)N[C@@H](CCc2ccc(C(F)(F)F)c(OC)c2)C(=O)N2C[C@@H](C)C[C@H]2C(=O)NC2(CC(C)(C)C2)C(=O)N(C)[C@@H](C2CCCC2)C(=O)N(C)[C@H](C(=O)N(C)CC)CC(=O)N1C [PP2427] the “NRAS/KRAS (ratio of KD value with respect to NRAS to KD value with respect to KRAS)” value ([1]; SPR) was “AA (a compound having 20 or more is denoted as AA)” and the “HRAS/KRAS (ratio of KD value with respect to HRAS to KD value with respect to KRAS)” value ([2]; SPR) was “A (a compound having 10 or more and less than 20 is denoted as A)”.

For CCCN1C(=O)C[C@@H](C(=O)N(C)C)N(C)C(=O)[C@H](C2CCCC2)N(C)C(=O)C2(CCC2)NC(=O)[C@@H]2C[C@@H](OCC)CN2C(=O)[C@H](CCc2cc(F)c(C(F)(F)F)c(F)c2)NC(=O)CN(C)C(=O)[C@H](Cc2ccc(C(F)(F)F)cc2)N2CC/C=C\C[C@@H](C2=O)N(C)C(=O)CN(C)C(=O)[C@H]([C@@H](C)CC)NC(=O)[C@@H]1CC(C)C [PP1825], the “NRAS/KRAS (ratio of KD value for NRAS to KD value for KRAS)” value ([1]; KD ratio, SPR) was “A (a compound having 10 or more and less than 20 is denoted as A)” and the “HRAS/KRAS (ratio of KD value for HRAS to KD value for KRAS)” value ([2]; KD ratio, SPR) was “A (a compound having 10 or more and less than 20 is denoted as A)”.

In the case of CCO[C@@H]1C[C@H]2C(=O)NC3(CCC3)C(=O)N(C)[C@@H](C(CC)CC)C(=O)N(C)[C@H](C(=O)N(C)C)CC(=O)N(C)[C@H]3CCCC/C=C/c4ccc(cc4)C[C@@H](C(=O)N(C)CC(=O)N[C@@H](CCc4ccc(Cl)c(Cl)c4)C(=O)N2C1)N1CC/C=C\C[C@@H](C1=O)N(C)C(=O)CN(C1CC1)C(=O)[C@H]([C@@H](C)CC)NC3=O [PP2605], the “NRAS/KRAS (ratio of KD value with respect to GDP-bound NRAS wild-type protein to KD value with respect to KRAS)” value ([1]; KD ratio NRAS/KRAS, class symbols) is reported as “AA (a compound having 20 or more is denoted as AA)” and the “HRAS/KRAS (ratio of KD value with respect to GDP-bound HRAS wild-type protein to KD value with respect to KRAS)” value ([2]; KD ratio HRAS/KRAS, class symbols) is reported as “A (a compound having 10 or more and less than 20 is denoted as A)”.

In the case of CC[C@H](C)[C@@H]1NC(=O)[C@H](CC(C)C)N(C)C(=O)C[C@@H](C(=O)N2CCOCC2)N(C)C(=O)[C@H](C2CCCC2)N(C)C(=O)C2(CCCC2)NC(=O)[C@@H]2CCCN2C(=O)[C@H](CCc2ccc(C(F)(F)F)c(Cl)c2)NC(=O)CN(C)C(=O)[C@H](Cc2ccc(F)cc2)N2C/C=C\CC[C@@H](C2=O)N(C)C(=O)CN(C)C1=O [PP0607], the “NRAS/KRAS (ratio of KD value with respect to GDP-bound NRAS wild-type protein to KD value with respect to KRAS)” value ([1]; KD ratio NRAS/KRAS, SPR) is reported as “C (A compound having a KD ratio of 0.1 or more and less than 3 is denoted as C)” and the “HRAS/KRAS (ratio of KD value with respect to GDP-bound HRAS wild-type protein to KD value with respect to KRAS)” value ([2]; KD ratio HRAS/KRAS, SPR) is reported as “B (a compound having 3 or more and less than 10 is denoted as B)”.

CCO[C@@H]1C[C@H]2C(=O)NC3(CCC3)C(=O)N(C)[C@@H](C3CCCC3)C(=O)N(C)[C@H](C(=O)N(C)C)CC(=O)N(C)[C@@H](Cc3ccccc3C)C(=O)N[C@@H]([C@@H](C)CC)C(=O)N(C)CC(=O)N(C)[C@H]3CCCCCN(C3=O)[C@@H](Cc3ccc(C(F)(F)F)cc3)C(=O)N(C)CC(=O)N[C@@H](CCc3cc(F)c(C(F)(F)F)c(F)c3)C(=O)N2C1 [PP0941] was tested, and the “NRAS/KRAS (ratio of KD value with respect to NRAS to KD value with respect to KRAS)” value ([1]; KD ratio, SPR) was “B (a compound having 3 or more and less than 10 is denoted as B)” and the “HRAS/KRAS (ratio of KD value with respect to HRAS to KD value with respect to KRAS)” value ([2]; KD ratio, SPR) was “B (a compound having 3 or more and less than 10 is denoted as B)”.

CCCN(C)C(=O)[C@@H]1CC(=O)N(C)[C@@H](CC(C)C)C(=O)N[C@@H]([C@@H](C)CC)C(=O)N(C)CC(=O)N(C)[C@H]2C/C=C\CCN(C2=O)[C@@H](Cc2ccc(C(F)(F)F)cc2)C(=O)N(C)CC(=O)N[C@@H](CCc2cc(F)c(C(F)(F)F)c(F)c2)C(=O)N2C[C@H](OCC)C[C@H]2C(=O)NC2(COC2)C(=O)N(C)[C@@H](C2CCCC2)C(=O)N1C [PP1938] was tested, and the “NRAS/KRAS (ratio of KD value for NRAS to KD value for KRAS)” value ([1]; KD ratio, SPR) was “AA (a compound having 20 or more is denoted as AA)” and the “HRAS/KRAS (ratio of KD value for HRAS to KD value for KRAS)” value ([2]; KD ratio, SPR) was “A (a compound having 10 or more and less than 20 is denoted as A)”.

CC[C@H](C)[C@@H]1NC(=O)[C@H](CC)N(C)C(=O)C[C@@H](C(=O)N(C)C)N(C)C(=O)[C@H](C2CCCC2)N(C)C(=O)C2(CCC2)N(C)C(=O)[C@@H]2C[C@@H](C)CN2C(=O)[C@H](CCc2cc(F)c(C(F)(F)F)c(F)c2)NC(=O)CN(C)C(=O)[C@H](Cc2ccc(C)cc2)N2CC/C=C\C[C@@H](C2=O)N(C)C(=O)CN(C)C1=O [PP1787] was tested, and the “NRAS/KRAS (ratio of KD value for NRAS to KD value for KRAS)” value ([1]; KD ratio, SPR) was “A (a compound having 10 or more and less than 20 is denoted as A)” and the “HRAS/KRAS (ratio of KD value for HRAS to KD value for KRAS)” value ([2]; KD ratio, SPR) was “B (a compound having 3 or more and less than 10 is denoted as B)”.

In the case of CCO[C@@H]1C[C@H]2C(=O)NC3(CC(C)(C)C3)C(=O)N(C)[C@@H](C3CCCC3)C(=O)N(C)[C@H](C(=O)N(C)C)CC(=O)N(C)[C@@H](CC(C)C)C(=O)N[C@@H]([C@@H](C)CC)C(=O)N(C)CC(=O)N(C)[C@H]3C/C=C\CCN(C3=O)[C@@H](Cc3ccc(C(F)(F)F)cc3)C(=O)N(C)CC(=O)N[C@@H](CCc3cc(F)c(C(F)(F)F)c(F)c3)C(=O)N2C1 [PP1650, (2S,8S,12R,14S,20S,23S,27S,30S,36S,38Z)-20-cyclopentyl-8-[2-[3,5-difluoro-4-(trifluoromethyl)phenyl]ethyl]-12-ethoxy-27-isobutyl-N,N,3′,3′,4,19,22,26,32,35-decamethyl-30-[(1S)-1-methylpropyl]-3,6,9,15,18,21,25,28,31,34,42-undecaoxo-2-[[4-(trifluoromethyl)phenyl]methyl]spiro[1,4,7,10,16,19,22,26,29,32,35-undecazatricyclo[34.5.1.0^10,14]dotetracont-38-ene-17,1′-cyclobutane]-23-carboxamide], the “NRAS/KRAS (ratio of KD value for NRAS to KD value for KRAS)” value ([1]; KD ratio, SPR) is reported as “A (a compound having 10 or more and less than 20 is denoted as A)” and the “HRAS/KRAS (ratio of KD value for HRAS to KD value for KRAS)” value ([2]; KD ratio, SPR) is reported as “A (a compound having 10 or more and less than 20 is denoted as A)”.
